From the supplement of paper PMC10307832

How the values were obtained:
Assay in all cases: relative viability (nuclei count vs DMSO), 5 days (fraction); higher = more cells survive
[1] = tested on: PC-14
How it was run: (§1)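 Dosing by pin tool came one day after lung cancer cell lines were seeded in 1536-well plates, using either one drug or a fixed anchor-drug dose plus five library-drug doses (not always all listed) in √10 steps. After 5 days, nuclei were counted on 4× images. Relative viability is treated-well nuclei count divided by vehicle-well nuclei count, and values are medians of duplicate plates.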

[2] = tested on: HCC-15
How it was run: as §1

[3] = tested on: NCI-H647
How it was run: as §1

[4] = tested on: COR-L 105
How it was run: as §1

[5] = tested on: COR-L23
How it was run: as §1

[6] = tested on: NCI-H838
How it was run: as §1

[7] = tested on: HOP-62
How it was run: as §1

[8] = tested on: NCI-H2085
How it was run: as §1

[9] = tested on: CAL-12T
How it was run: as §1

[10] = tested on: NCI-H522
How it was run: as §1

[11] = tested on: LC-2-ad
How it was run: as §1

[12] = tested on: NCI-H1944
How it was run: as §1

Work on `C=C1C(=O)O[C@@H](CCCCCCCC)[C@@H]1C(=O)O` [C-75] + Nc1nc2[nH]cc(CCc3ccc(C(=O)N[C@@H](CCC(=O)O)C(=O)O)cc3)c2c(=O)[nH]1 [Pemetrexed] (partner 0.2 µM) yielded a relative viability ([1]; first compound 2.53 µM) of 0.141, a relative viability ([1]; first compound 8 µM) of 0.131 and a relative viability ([2]; first compound 0.08 µM) of 0.246. For the same compound, the relative viability ([2]; first compound 0.253 µM) was 0.239, the relative viability ([2]; first compound 0.8 µM) was 0.203 and the relative viability ([2]; first compound 2.53 µM) was 0.208. The relative viability ([2]; first compound 8 µM) was 0.223, the relative viability ([3]; first compound 0.08 µM) was 0.181 and the relative viability ([3]; first compound 0.253 µM) was 0.186. It also gave a relative viability ([3]; first compound 0.8 µM) of 0.167, a relative viability ([3]; first compound 2.53 µM) of 0.171 and a relative viability ([3]; first compound 8 µM) of 0.128. For the same compound, the relative viability ([4]; first compound 0.08 µM) was 1.14, the relative viability ([4]; first compound 0.253 µM) was 1.07 and the relative viability ([4]; first compound 0.8 µM) was 1.07. For the same compound, the relative viability ([4]; first compound 2.53 µM) was 1.24, the relative viability ([4]; first compound 8 µM) was 0.96 and the relative viability ([5]; first compound 0.08 µM) was 0.197. The relative viability ([5]; first compound 0.253 µM) was 0.197, the relative viability ([5]; first compound 0.8 µM) was 0.2 and the relative viability ([5]; first compound 2.53 µM) was 0.2. The relative viability ([5]; first compound 8 µM) was 0.198, the relative viability ([6]; first compound 0.08 µM) was 0.224 and the relative viability ([6]; first compound 0.253 µM) was 0.265. For the same compound, the relative viability ([6]; first compound 0.8 µM) was 0.262, the relative viability ([6]; first compound 2.53 µM) was 0.18 and the relative viability ([6]; first compound 8 µM) was 0.239. The relative viability ([7]; first compound 0.08 µM) was 0.365, the relative viability ([7]; first compound 0.253 µM) was 0.306 and the relative viability ([7]; first compound 0.8 µM) was 0.291. For the same compound, the relative viability ([7]; first compound 2.53 µM) was 0.268, the relative viability ([7]; first compound 8 µM) was 0.311 and the relative viability ([8]; first compound 0.08 µM) was 0.875. The relative viability ([8]; first compound 0.253 µM) was 0.738, the relative viability ([8]; first compound 0.8 µM) was 0.857 and the relative viability ([8]; first compound 2.53 µM) was 0.788. The relative viability ([8]; first compound 8 µM) was 0.902, the relative viability ([9]; first compound 0.08 µM) was 1.37 and the relative viability ([9]; first compound 0.253 µM) was 1.45. For the same compound, the relative viability ([9]; first compound 0.8 µM) was 1.11, the relative viability ([9]; first compound 2.53 µM) was 1.05 and the relative viability ([9]; first compound 8 µM) was 1.27. For the same compound, the relative viability ([10]; first compound 0.08 µM) was 1.02, the relative viability ([10]; first compound 0.253 µM) was 0.76 and the relative viability ([10]; first compound 0.8 µM) was 0.828. For the same compound, the relative viability ([10]; first compound 2.53 µM) was 0.869, the relative viability ([10]; first compound 8 µM) was 0.879 and the relative viability ([11]; first compound 0.08 µM) was 0.283. It also gave a relative viability ([11]; first compound 0.253 µM) of 0.265, a relative viability ([11]; first compound 0.8 µM) of 0.285 and a relative viability ([11]; first compound 2.53 µM) of 0.279. For the same compound, the relative viability ([11]; first compound 8 µM) was 0.271, the relative viability ([12]; first compound 0.08 µM) was 0.645 and the relative viability ([12]; first compound 0.253 µM) was 0.784. It also gave a relative viability ([12]; first compound 0.8 µM) of 0.509, a relative viability ([12]; first compound 2.53 µM) of 0.564 and a relative viability ([12]; first compound 8 µM) of 0.57.
